Consider 13 compounds from ChEMBL document CHEMBL2424617, “Microwave-assisted synthesis and anticonvulsant activity of 5,6-bisaryl-1,2,4-triazine-3-thiol derivatives” (Med Chem Res, 2013).

Each structure is given as a SMILES string. Activity calls are given as the source filed them. The rule behind the calls is not given here.

Series [1] concerns Mus musculus. Description: Anticonvulsant activity in NMRI mouse assessed as […] of PTZ required to induce seizure at 100 mg/kg, ip after 30 mins (reference value: 31.5 +/- 4.4 mg/kg). Format: functional.
In series [2] the test system is Mus musculus. In words: Neurotoxicity in NMRI mouse assessed as impairment of motor coordination at 100 mg/kg after 30 mins by chimney test. Format: toxicity, organism-based. Further details: dose 100 mg/kg. The settings on record: in vivo, 0.5 h.
Series [3] has as its system Mus musculus. Description: Anticonvulsant activity in NMRI mouse assessed as protection against electroshock-induced seizure at 12.5 mg/kg, ip after 30 mins. The settings on record: route intraperitoneal. Format: functional.
Series [4] has as its system Mus musculus. In words: Neurotoxicity in NMRI mouse assessed as impairment of motor coordination at 12.5 mg/kg, ip after 30 mins by rotarod test. Format: toxicity, organism-based. Also noted: dose 12.5 mg/kg, route intraperitoneal. The settings on record: in vivo, 0.5 h. Background: The rotarod test checks motor coordination on a turning rod.
Series [5] deals with Mus musculus. In words: Anticonvulsant activity in NMRI mouse assessed as […] of PTZ required to induce seizure at 12.5 mg/kg, ip after 30 mins (reference value: 31.5 +/- 4.4 mg/kg). Format: functional.
For series [6], the system named is Mus musculus. In words: Neurotoxicity in NMRI mouse assessed as impairment of motor coordination at 12.5 mg/kg, ip after 30 mins by chimney test. The class given is toxicity, organism-based. Also noted: dose 12.5 mg/kg, route intraperitoneal. The settings on record: in vivo, 0.5 h.
For series [7], the system named is Mus musculus. In words: Neurotoxicity in NMRI mouse assessed as impairment of motor coordination at 100 mg/kg after 30 mins by rotarod test. The class given is toxicity, organism-based. Further details: dose 100 mg/kg. The settings on record: in vivo, 0.5 h.
The test system of series [8] is Mus musculus. In words: Anticonvulsant activity in NMRI mouse assessed as protection against electroshock-induced seizure at 100 mg/kg after 30 mins. Format: functional.

On to `Cc1ccc(-c2nnc(S)nc2-c2ccc(C)cc2)cc1`, for which the Activity with Mus musculus [1] is 40.4 mg/kg; with Mus musculus [2], “Non-toxic”.
As to `Nc1nnc(-c2cccc(Cl)c2Cl)c(N)n1` [LAMOTRIGINE], the Activity with Mus musculus [3] is 100%; in the series on Mus musculus [4], “Non-toxic”; in the series on Mus musculus [5], 72.9 mg/kg; in the series on Mus musculus [6], “Non-toxic”.
With `CSc1nnc(-c2cccs2)c(-c2cccs2)n1`, the Activity was 38.23 mg/kg with Mus musculus [1], “Non-toxic” with Mus musculus [2] and “Non-toxic” with Mus musculus [7].
For `CSc1nnc(-c2ccc(F)cc2)c(-c2ccc(F)cc2)n1`, the Activity was 33% in the series with Mus musculus [2] and “Non-toxic” in the series with Mus musculus [7].
As for `COc1ccc(-c2nnc(SC)nc2-c2ccc(OC)cc2)cc1`, the Activity in the series on Mus musculus [1] is 41.4 mg/kg; with Mus musculus [2], “Non-toxic”; in the series with Mus musculus [7] it was “Non-toxic”.
Take `Sc1nnc(-c2cccs2)c(-c2cccs2)n1`: the Activity in the series on Mus musculus [1] was 24.42 mg/kg; in the series on Mus musculus [2], “Non-toxic”; in the series on Mus musculus [7], “Non-toxic”.
Consider `COc1ccc(-c2nnc(SCc3cccnc3)nc2-c2ccc(OC)cc2)cc1`, for which the Activity is 41.5 mg/kg in the series with Mus musculus [1], “Non-toxic” in the series with Mus musculus [2] and “Non-toxic” in the series with Mus musculus [7].
`COc1ccc(-c2nnc(S)nc2-c2ccc(OC)cc2)cc1`: the Activity result in the series with Mus musculus [2] and in the series with Mus musculus [7] was “Non-toxic” in each case. The outcome in the series on Mus musculus [8] was inactive.
With `Clc1ccc(-c2nnc(SCc3ccncc3)nc2-c2ccc(Cl)cc2)cc1`, the Activity is 43 mg/kg in the series on Mus musculus [1] and “Non-toxic” in the series with Mus musculus [2].
For `Cc1ccc(-c2nnc(SCc3ccncc3)nc2-c2ccc(C)cc2)cc1`, the Activity in the series on Mus musculus [1] is 49.4 mg/kg; in the series with Mus musculus [2] it was “Non-toxic”; in the series with Mus musculus [7] it was “Non-toxic”; with Mus musculus [8] it was 100%.
For `Cc1ccc(-c2nnc(SCc3cccnc3)nc2-c2ccc(C)cc2)cc1`, the values for the Activity in the series on Mus musculus [1], with Mus musculus [2] and in the series with Mus musculus [7] were 47 mg/kg, “Non-toxic” and “Non-toxic”, respectively.
For `CSc1nnc(-c2ccc(C)cc2)c(-c2ccc(C)cc2)n1`, the Activity with Mus musculus [1] was 39.4 mg/kg; in the series with Mus musculus [2], “Non-toxic”; in the series on Mus musculus [7] it was “Non-toxic”.
On to `Sc1nnc(-c2ccc(Cl)cc2)c(-c2ccc(Cl)cc2)n1`, for which the Activity result with Mus musculus [2] and in the series on Mus musculus [7] was “Non-toxic” in each case.
